# Measurements reported in patent US20240245770A1, “COMPOSITIONS AND METHODS FOR TREATING NEUROMUSCULAR DISORDERS” (The Regents of the University of California, priority 2019, published 2024).
# Legend:
# Type in all cases: cell-based, human
# [1] = system: PBMCs; test: PBMC flow cytometry, percentages of immune subsets
# Protocol: Percentage of immune subsets in PBMCs in lab blood drawn. PBMC were isolated from peripheral blood of donors using ficoll-hypaque gradient centrifugation. The percentages of each cell subset in PBMCs were determined by flow cytometric analysis after staining with specific fluorescent conjugated antibodies directed to the cell surface receptors. No significant differences in the percentages of immune subsets between the donors (FIG. 1A and FIG. 1B).
# [2] = system: Oral squamous carcinoma cells (OSCCs) and Oral squamous stem cell carcinoma (OSCSCs); test: NAC blocking of CDDP mediated cell death (PI staining, flow cytometry); settings: NAC 20 mM, 24 hours, OSCCs and OSCSCs
# Protocol: Testing and selection of the best NAC to be used in ALS treatment. […] Afterwards OSCCs and OSCSCs were detached, and the viability of cells was determined after PI staining followed by flow cytometric analysis. In this figure Forward and Side Scatters (Fs/ss) were assessed since decrease in the Fs/ss is seen in cells undergoing cell death.
# Testing and selection of the best NAC to be used in ALS treatment. […] Afterwards OSCCs and OSCSCs were detached, and the viability of cells was determined after PI staining followed by flow cytometric analysis. In this figure the percentage of PI stained cells were assessed.
# [3] = system: Dental Pulp Stromal Cells (DPSCs); test: NAC blocking of H2O2 mediated cell death in DPSCs; settings: NAC 20 mM, 24 hours, FIG. 67
# Protocol: Testing and selection of the best NAC to be used in ALS treatment. […] Afterwards DPSCs were detached, and the viability of cells was determined after PI staining followed by flow cytometric analysis. In this figure the decrease in FS/ss and the percentage of PI stained cells were assessed.
# [4] = system: OSCSCs; test: NAC blocking of H2O2 mediated cell death in OSCSCs; settings: NAC 20 mM, 24 hours, FIG. 68
# [5] = ALS patient H107 JC, Post-NAC, Pre-young plasma
# [6] = ALS patient H110 RS, Post-NAC infusion
compound,measurement,setting,value
"CC(=O)N[C@@H](CS)C(=O)O [NAC, N-Acetyl-Cysteine]","CD4, percentage of immune subset",[1]; [5],31.4%
same,"CD8, percentage of immune subset",[1]; [5],15.1%
same,"CD14, percentage of immune subset",[1]; [5],15.0%
same,"CD19, percentage of immune subset",[1]; [5],24.6%
same,"NK, percentage of immune subset",[1]; [5],11.5%
same,"NKT, percentage of immune subset",[1]; [5],3.58%
same,total of immune subsets,[1]; [5],97.6%
same,"CD4, percentage of immune subset",[1]; [6],27.6%
same,"CD8, percentage of immune subset",[1]; [6],20.4%
same,"CD14, percentage of immune subset",[1]; [6],27.1%
same,"CD19, percentage of immune subset",[1]; [6],10.0%
same,"NK, percentage of immune subset",[1]; [6],15.3%
same,total of immune subsets,[1]; [6],100.4%
same,"CDDP mediated cell death, Forward and Side Scatters (Fs/ss)",[2]; FIG. 65,blocks CDDP mediated Cell death in Oral tumors
same,"CDDP mediated cell death, percentage of PI stained cells",[2]; FIG. 66,blocks CDDP mediated Cell death in Oral tumors
same,H2O2 mediated cell death (Fs/ss and PI positive cells),[3],blocks H2O2 mediated Cell death in DPSCs
same,H2O2 mediated cell death (Fs/ss and PI positive cells),[4],blocks H2O2 mediated Cell death in OSCSCs
